{
  "source": "patent US12421225B2",
  "about": "“Heteroaromatic amide derivative and medicament containing the same” (KAKEN PHARMACEUTICAL CO., LTD., priority 2018, dated 2025)",
  "data": [
    {"biological_target": "human Nav1.7 (Homo sapiens (Human), UniProt Q15858)", "sequence (Q15858 whole entry)": "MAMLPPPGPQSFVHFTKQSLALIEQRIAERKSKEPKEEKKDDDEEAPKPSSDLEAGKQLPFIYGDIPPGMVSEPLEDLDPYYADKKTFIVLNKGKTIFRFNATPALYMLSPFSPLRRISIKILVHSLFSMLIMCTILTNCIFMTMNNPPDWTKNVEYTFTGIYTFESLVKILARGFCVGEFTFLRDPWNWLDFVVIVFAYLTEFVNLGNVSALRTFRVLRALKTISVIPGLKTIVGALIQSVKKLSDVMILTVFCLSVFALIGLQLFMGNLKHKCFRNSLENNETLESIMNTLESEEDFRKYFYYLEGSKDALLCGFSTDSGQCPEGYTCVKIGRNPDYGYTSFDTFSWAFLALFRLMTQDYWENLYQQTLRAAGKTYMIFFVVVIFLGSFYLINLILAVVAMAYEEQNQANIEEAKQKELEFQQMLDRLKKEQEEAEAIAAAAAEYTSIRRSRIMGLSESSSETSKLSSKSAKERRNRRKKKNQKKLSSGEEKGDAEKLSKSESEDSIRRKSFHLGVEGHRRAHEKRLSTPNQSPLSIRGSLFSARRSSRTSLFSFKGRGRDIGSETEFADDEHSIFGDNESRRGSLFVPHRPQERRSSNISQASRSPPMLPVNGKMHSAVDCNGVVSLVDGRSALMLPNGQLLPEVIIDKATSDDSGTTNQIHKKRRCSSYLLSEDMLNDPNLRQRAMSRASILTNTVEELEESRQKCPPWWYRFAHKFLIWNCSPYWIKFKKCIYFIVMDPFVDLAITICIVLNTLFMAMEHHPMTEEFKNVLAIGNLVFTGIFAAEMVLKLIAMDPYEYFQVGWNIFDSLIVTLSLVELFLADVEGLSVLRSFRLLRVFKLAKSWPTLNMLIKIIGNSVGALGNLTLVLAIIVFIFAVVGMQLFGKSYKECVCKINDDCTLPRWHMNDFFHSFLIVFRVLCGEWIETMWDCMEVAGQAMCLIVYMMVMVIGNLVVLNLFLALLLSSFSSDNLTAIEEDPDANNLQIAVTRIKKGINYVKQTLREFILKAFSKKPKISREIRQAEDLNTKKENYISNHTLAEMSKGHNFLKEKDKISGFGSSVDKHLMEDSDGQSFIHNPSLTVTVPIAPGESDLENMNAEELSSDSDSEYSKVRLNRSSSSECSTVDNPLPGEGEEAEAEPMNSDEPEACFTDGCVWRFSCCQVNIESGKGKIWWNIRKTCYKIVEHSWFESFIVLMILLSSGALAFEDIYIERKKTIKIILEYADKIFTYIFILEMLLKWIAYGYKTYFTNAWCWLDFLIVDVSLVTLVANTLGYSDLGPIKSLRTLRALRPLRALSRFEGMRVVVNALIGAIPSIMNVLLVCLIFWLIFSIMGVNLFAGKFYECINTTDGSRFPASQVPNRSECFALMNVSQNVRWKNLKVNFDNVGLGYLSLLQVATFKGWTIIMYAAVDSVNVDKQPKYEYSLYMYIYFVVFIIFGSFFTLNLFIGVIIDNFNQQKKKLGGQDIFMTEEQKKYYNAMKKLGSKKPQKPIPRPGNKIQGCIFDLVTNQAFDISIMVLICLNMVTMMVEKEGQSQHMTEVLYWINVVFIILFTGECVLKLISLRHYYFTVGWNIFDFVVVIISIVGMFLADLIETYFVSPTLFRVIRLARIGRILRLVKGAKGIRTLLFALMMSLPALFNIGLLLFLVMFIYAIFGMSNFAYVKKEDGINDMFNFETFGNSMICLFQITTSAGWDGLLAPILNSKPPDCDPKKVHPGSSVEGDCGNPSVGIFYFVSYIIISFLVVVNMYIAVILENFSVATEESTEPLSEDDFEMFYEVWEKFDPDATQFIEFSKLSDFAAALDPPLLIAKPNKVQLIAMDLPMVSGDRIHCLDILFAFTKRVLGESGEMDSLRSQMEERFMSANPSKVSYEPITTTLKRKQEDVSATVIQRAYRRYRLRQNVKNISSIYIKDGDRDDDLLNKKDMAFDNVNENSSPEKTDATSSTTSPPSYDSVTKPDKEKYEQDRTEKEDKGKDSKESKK", "sequence (Q07699 19-218 partner)": "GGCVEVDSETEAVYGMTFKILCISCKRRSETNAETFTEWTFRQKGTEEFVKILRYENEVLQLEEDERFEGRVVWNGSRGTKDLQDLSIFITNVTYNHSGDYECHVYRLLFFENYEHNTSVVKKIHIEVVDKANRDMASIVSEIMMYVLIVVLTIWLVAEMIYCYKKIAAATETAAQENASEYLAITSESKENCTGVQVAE", "assay": "Human Nav1.7 inhibitory activity evaluation (automated patch clamp QPatch16X, HEK293A cells stably expressing human Nav1.7 and human Navβ1)", "type": "cell-based", "details": "HEK293A cells stably expressing human Nav1.7 and human Navβ1, automated patch clamp QPatch16X", "protocol": "(§1) Test Example 1: Human Nav1.7 Inhibitory Activity Evaluation\n(§2) A cell line in which human Nav1.7 and human Navβ1 subunits were stably expressed in HEK293A cells was used. Dulbecco's Modified Eagle Medium (DMEM) supplemeted with 10% fetal bovine serum, 600 μg/ml geneticin, and 2 μg/ml blasticidin S were used as culture medium under the conditions of 37° C. and 5% CO2 in T175 flasks to carry out culturing. When 60-80% confluence was reached, the cells were detached and a cell suspension of about 0.5-5.0×10^6 cells/mL was prepared. The amount of current through human Nav1.7 was recorded using a fully automatic patch clamp device QPatch16X (Sophion Biosciences) at room temperature. As the extracellular solution, the solution of 145 mM NaCl, 4 mM KCl, 1 mM MgCl2, 2 mM CaCl2, 10 mM Glucose, 10 mM 4-(2-hydroxyethyl)-1-piperazine ethanesulfonic acid (HEPES) at pH 7.4 was used. As the intracellular solution, the solution of 135 mM CsF, ⅕ mM glycol ether diaminetetraacetic acid (EGTA)/CsOH, 10 mM HEPES, 10 mM NaCl at pH 7.3 was used. The test compounds were dissolved in dimethyl sulfoxide (DMSO) and diluted with the extracellular solution to attain the DMSO concentration of 0.1% at the time of assay.\n(§3) The current response was obtained at a sampling frequency of 25 kHz, and noise was removed with a 3 kHz low-pass filter. The holding potential was −100 mV. Correction of the leakage current was carried out by applying a step pulse of −120 mV before the test pulse. In order to investigate inhibitory action of the test compound, the following test pulse was given: Namely, after depolarizing pulse of −10 mV was applied for 50 milliseconds, it was fixed at −120 mV for 500 milliseconds; a potential at which about 30-40% of the channel was inactivated was maintained for 15 seconds, then fixed again at −120 mV for 100 milliseconds, and finally a −10 mV depolarization pulse was given for 50 milliseconds. Test pulses were given before and after the test compound addition.\n(§4) The inhibitory activity of the test compound was determined based on the amount of inward current generated by the second depolarization pulse, and the 50% inhibitory concentration (IC50) was calculated from the concentration-response curve.", "units": {"IC50": "µM"}, "values": [
      {"smiles": "O=C(NC1COc2cccc(C3CC3)c2C1)c1cn2c(n1)CCC(C(F)(F)F)C2", "note": "(centres unmarked) [Example 10]", "IC50": "< 10"},
      {"smiles": "COc1ccc2c(c1)CC(NC(=O)c1cn3c(n1)CCC(C(F)(F)F)C3)CO2", "note": "(centres unmarked) [Example 13]", "IC50": "< 10"},
      {"smiles": "COc1cccc(-c2c(C(=O)N[C@H]3COc4ccccc4C3)nc3n2CC(C(F)(F)F)CC3)n1", "note": "(some centres unmarked) [Example 15]", "IC50": "< 1"},
      {"smiles": "O=C(N[C@H]1COc2ccc(Cl)cc2C1)c1nc2n(c1-c1ccccn1)CCCC2", "note": "[Example 18, (R)—N-(6-chlorochroman-3-yl)-3-(pyridin-2-yl)-5,6,7,8-tetrahydroimidazo[1,2-a]pyridine-2-carboxamide]", "IC50": "< 1"},
      {"smiles": "O=C(N[C@H]1COc2ccccc2C1)c1cn2c(n1)CCC(C1CCCC1)C2", "note": "(some centres unmarked) [Example 24]", "IC50": "< 1"},
      {"smiles": "O=C(c1cn2c(n1)CCC(C1CCCCC1)C2)N1CCC1Cc1ccccc1", "note": "(centres unmarked) [Example 31]", "IC50": "< 1"},
      {"smiles": "O=C(N[C@H]1COc2ccccc2C1)c1cn2c(n1)CCC(NCc1ccccc1)C2", "note": "(some centres unmarked) [Example 42]", "IC50": "< 10"},
      {"smiles": "CN1Cc2nc(C(=O)N[C@H]3COc4ccccc4C3)cn2CC1c1ccc(F)c(F)c1", "note": "(some centres unmarked) [Example 45]", "IC50": "< 10"},
      {"smiles": "CC(C)CCC1Cn2cc(C(=O)N[C@H]3COc4ccccc4C3)nc2CN1C", "note": "(some centres unmarked) [Example 50]", "IC50": "< 10"},
      {"smiles": "O=C(N[C@H]1COc2ccccc2C1)c1cn2c(n1)CNC(CCc1ccc(F)cc1)C2", "note": "(some centres unmarked) [Example 53]", "IC50": "< 10"},
      {"smiles": "CN1Cc2nc(C(=O)N[C@H]3COc4ccccc4C3)cn2CC1CCc1ccc(F)cc1", "note": "(some centres unmarked) [Example 54]", "IC50": "< 10"},
      {"smiles": "O=C(N[C@H]1COc2ccccc2C1)c1cn2c(n1)CNC(c1ccccc1)C2", "note": "(some centres unmarked) [Example 56]", "IC50": "< 10"},
      {"smiles": "CN1Cc2nc(C(=O)N3CC(Oc4cccc(C(F)(F)F)n4)C3)cn2CC1c1ccccc1", "note": "(centres unmarked) [Example 63]", "IC50": "< 10"},
      {"smiles": "COc1cccc(-c2c(C(=O)N[C@H]3COc4ccccc4C3)nn3c2CCCC3)n1", "note": "[Example 69]", "IC50": "< 10"},
      {"smiles": "COc1cc(C2CCn3nc(C(=O)N[C@H]4COc5ccc(C#N)cc5C4)cc3O2)ccn1", "note": "(some centres unmarked) [Example 73]", "IC50": "< 10"},
      {"smiles": "O=C(N[C@H]1COc2ccc(CO)cc2C1)c1cc2n(n1)CCC(c1ccccc1F)O2", "note": "(some centres unmarked) [Example 82]", "IC50": "< 10"},
      {"smiles": "C[C@H]1CCn2nc(C(=O)N[C@H]3COc4ccc(Br)cc4C3)cc2O1", "note": "[Example 88]", "IC50": "< 1"},
      {"smiles": "C[C@@H]1CCn2nc(C(=O)N[C@H]3COc4ccc(Br)cc4C3)cc2O1", "note": "[Example 89]", "IC50": "< 1"},
      {"smiles": "CCC1CCn2nc(C(=O)N[C@H]3COc4ccc(-c5cnc(OC)nc5)cc4C3)cc2O1", "note": "(some centres unmarked) [Example 93]", "IC50": "< 1"},
      {"smiles": "N#Cc1ccc2c(c1)C[C@@H](NC(=O)c1cc3n(n1)CCC(COCc1ccccc1)O3)CO2", "note": "(some centres unmarked) [Example 99]", "IC50": "< 1"},
      {"smiles": "N#Cc1ccc2c(c1)C[C@@H](NC(=O)c1cc3n(n1)CCC(COCc1cccc(F)c1)O3)CO2", "note": "(some centres unmarked) [Example 104]", "IC50": "< 1"},
      {"smiles": "O=C(N[C@H]1COc2ccc(Cl)cc2C1)c1cc2n(n1)CCC(COCC1CC1)O2", "note": "(some centres unmarked) [Example 106]", "IC50": "< 1"},
      {"smiles": "N#Cc1ccc(-c2ccc3c(c2)C[C@@H](NC(=O)c2cc4n(n2)CCC(COCC2CC2)O4)CO3)cn1", "note": "(some centres unmarked) [Example 107]", "IC50": "< 10"},
      {"smiles": "N#Cc1ccc2c(c1)C[C@@H](NC(=O)c1cc3n(n1)CCC(COC(C(F)(F)F)C(F)(F)F)O3)CO2", "note": "(some centres unmarked) [Example 116]", "IC50": "< 1"},
      {"smiles": "N#Cc1ccc2c(c1)C[C@@H](NC(=O)c1cc3n(n1)CCC(CSc1ccccc1)O3)CO2", "note": "(some centres unmarked) [Example 119]", "IC50": "< 1"},
      {"smiles": "O=C(N[C@H]1COc2ccc(Cl)cc2C1)c1cc2n(n1)CCC(COc1ccncc1)O2", "note": "(some centres unmarked) [Example 120]", "IC50": "< 10"},
      {"smiles": "CN(Cc1ccccc1)CC1CCn2nc(C(=O)N[C@H]3COc4ccc(Cl)cc4C3)cc2O1", "note": "(some centres unmarked) [Example 121]", "IC50": "< 10"},
      {"smiles": "N#Cc1ccc(-c2ccc3c(c2)C[C@@H](NC(=O)c2cc4n(n2)CCC(COCC(F)(F)F)O4)CO3)cn1", "note": "(some centres unmarked) [Example 132]", "IC50": "< 10"}
    ]},
    {"biological_target": "human Nav1.7 (Homo sapiens (Human), UniProt Q15858)", "assay": "Human Nav1.7 inhibitory activity evaluation (automated patch clamp QPatch16X, HEK293A cells stably expressing human Nav1.7 and human Navβ1)", "type": "cell-based", "details": "human Nav1.7, automated patch clamp", "protocol": "as §1, §2, §3, §4", "units": {"IC50": "µM"}, "values": [
      {"smiles": "O=C(N[C@H]1COc2ccc(CC(F)F)cc2C1)c1cc2n(n1)CCC(COCC(F)(F)F)CO2", "note": "(single isomer, unassigned) [601 (isomer A)]", "IC50": "< 10"},
      {"smiles": "O=C(N[C@H]1COc2ccc(C(F)(F)F)cc2C1O)c1cc2n(n1)CC(CCCOCC(F)(F)F)O2", "note": "(single isomer, unassigned) [603 (isomer A)]", "IC50": "< 1"},
      {"smiles": "N#Cc1ccc2c(c1)C[C@@H](NC(=O)c1cc3n(n1)CC(CCCOCC(F)F)O3)CO2", "note": "(single isomer, unassigned) [604 (isomer B)]", "IC50": "< 10"},
      {"smiles": "O=C(N[C@H]1COc2ccc(C(F)(F)F)cc2C1O)c1cc2n(n1)CC(CCCOCC(F)F)O2", "note": "(single isomer, unassigned) [610 (isomer B)]", "IC50": "< 10"},
      {"smiles": "O=C(N[C@H]1COc2ccc(C(F)(F)F)cc2C1O)c1cc2n(n1)CC(CCCOCC(F)(F)F)O2", "note": "(single isomer, unassigned) [616 (isomer B)]", "IC50": "< 10"},
      {"smiles": "N#Cc1ccc2c(c1)C(F)[C@@H](NC(=O)c1cc3n(n1)CCC(COCC1CC1)O3)CO2", "note": "(single isomer, unassigned) [617 (isomer B)]", "IC50": "< 10"},
      {"smiles": "O=C(N[C@H]1COc2ccc(C(F)(F)F)cc2C1O)c1cc2n(n1)CC(CCOCC1CC1)O2", "note": "(single isomer, unassigned) [636 (isomer A)]", "IC50": "< 1"},
      {"smiles": "O=C(N[C@H]1COc2ccc(C(F)(F)F)cc2C1O)c1cc2n(n1)CC(CSCC(F)(F)F)O2", "note": "(single isomer, unassigned) [641 (isomer A)]", "IC50": "< 10"},
      {"smiles": "O=C(N[C@H]1COc2ccc(C(F)(F)F)cc2C1O)c1cc2n(n1)CCC(OCCOCC(F)(F)F)CO2", "note": "(single isomer, unassigned) [Example 681]", "IC50": "< 10"},
      {"smiles": "N#Cc1ccc2c(c1)C[C@@H](NC(=O)c1cc3n(n1)C[C@H](CC1CCOCC1)O3)CO2", "note": "(single isomer, unassigned; isomer a) [577(isomer A)]", "IC50": "< 10"},
      {"smiles": "O=C(N[C@H]1COc2ccc(CC(F)F)cc2C1)c1cc2n(n1)C[C@H](CC1CCOCC1)O2", "note": "(single isomer, unassigned; isomer a) [590(isomer A)]", "IC50": "< 1"},
      {"smiles": "COC1c2cc(C(F)(F)F)ccc2OC[C@@H]1NC(=O)c1cc2n(n1)CCC(COCC(F)(F)F)O2", "note": "(single isomer, unassigned; isomer a) [598(isomer A)]", "IC50": "< 1"},
      {"smiles": "CC(C)(F)C1CCn2nc(C(=O)N[C@H]3COc4ccc(Cl)cc4C3)cc2O1", "note": "(some centres unmarked) [Example 166]", "IC50": "< 1"},
      {"smiles": "COc1ncc(-c2ccc3c(c2)C[C@@H](NC(=O)c2cc4n(n2)CCC(C(F)(F)F)O4)CO3)cn1", "note": "(some centres unmarked) [Example 176]", "IC50": "< 10"},
      {"smiles": "CC1(C)CCn2nc(C(=O)N[C@H]3COc4ccc(-c5ccc(C#N)nc5)cc4C3)cc2O1", "note": "[Example 179]", "IC50": "< 10"},
      {"smiles": "N#Cc1ccc2c(c1)C[C@@H](NC(=O)c1cc3n(n1)CCC1(CCC1)O3)CO2", "note": "[Example 180]", "IC50": "< 10"},
      {"smiles": "O=C(N[C@H]1COc2ccc(COCC(F)(F)F)cc2C1)c1cc2n(n1)CC(C(F)(F)F)O2", "note": "(some centres unmarked) [Example 183]", "IC50": "< 10"},
      {"smiles": "O=C(N[C@H]1COc2ccc(CC(F)(F)F)cc2C1)c1cc2n(n1)CC(COCC(F)(F)F)O2", "note": "(some centres unmarked) [Example 191]", "IC50": "< 1"},
      {"smiles": "Cc1cnc(-c2ccc3c(c2)C[C@@H](NC(=O)c2cc4n(n2)CC(COCC(F)(F)F)O4)CO3)cn1", "note": "(some centres unmarked) [Example 193]", "IC50": "< 10"},
      {"smiles": "O=C(N[C@H]1COc2ccc(CC(F)F)cc2C1)c1cc2n(n1)CC(CCOC(F)(F)F)O2", "note": "(some centres unmarked) [Example 210]", "IC50": "< 1"},
      {"smiles": "O=C(N[C@H]1COc2ccc(CCOC(F)F)cc2C1)c1cc2n(n1)CC(CCOC(F)F)O2", "note": "(some centres unmarked) [Example 216]", "IC50": "< 1"},
      {"smiles": "O=C(N[C@H]1COc2ccc(C(F)(F)F)cc2C1)c1cc2n(n1)CC(CCN1CC(F)(F)C1)O2", "note": "(some centres unmarked) [Example 235]", "IC50": "< 10"}
    ]}
  ]
}
